Test results taken from patent US11981711B2, “Methods of treating spinal cord injury using a chondroitin sulfate proteoglycan (CSPG) reduction peptide (CRP) comprising a cell membrane penetrating domain, a CSPG binding domain, and a lysosome targeting domain” (The Cleveland Clinic Foundation, priority 2017, dated 2024).

Assays:
[1] = test system: chondroitin sulfate proteoglycan (CSPG); assay: CSPG expression around the spinal cord lesion after contusive SCI, treatment from one day after SCI; assay type: in vivo, rat
Source text: (§1) In this Example, the CRP has been applied in a preclinical rat model to test the efficacy of the treatment of spinal cord injury (SCI). The injury was made at thoracic 8 level using contusive injury device. The contusive SCI is the most clinical relevance among all experimental SCI models. We have assessed both motor and bladder control as functional outcomes and analyzed anatomical evidences to support these findings. We also selected sub-acute phase (ONE-DAY after SCI) and chronic phase (TWO-MONTHs after SCI) to start our treatment.
(§2) Furthermore CRP can efficiently improve locomotion and bladder electromyography (EMG) activities and voiding patterns after SCI.

spinal cord injury (SCI) [2] = assay: Locomotion and gait after T8 contusive SCI, sub-acute CRP treatment; assay type: in vivo, rat
Source text: as §1, §2
In particular, FIG. 26A-G show Kinematics assessment in SCI rats. (A) Representative total of hindlimb movement trajectories for spinal-intact, SCI+scrambled peptide (scr) and SCI+CRP groups at 3 months post-SCI. […] N=6 to 8 per group.

spinal cord injury (SCI) [3] = assay: Bladder function (voiding, CMG, EUS EMG) after T8 contusive SCI, sub-acute CRP treatment; assay type: in vivo, rat
Source text: as §1, §2
(A) Representative cystometrograms (CMG) with micturition (voiding) events (indicated by asterisk) for spinal-intact, SCI+scrambled peptide (scr) and SCI+CRP groups at 3 months post-SCI. […] N=6 to 8 per group.
(A) Representative cystometrograms (CMG) with external urethral sphincter (EUS) electromyogram (EMG) recordings at micturition events for spinal-intact, SCI+scrambled peptide (scr) and SCI+CRP groups at 3 months post-SCI. […] The red dot indicates bursting activity. **, P<0.01; ***, P<0.001 when compared to the spinal-intact group; +, P<0.05, ++, P<0.01; +++, P<0.001 when compared to the scr group. N=6 to 8 per group.

[4] = test system: serotonin (5-HT) fibers and traced fibers from brain stem and red nuclei; assay: Axon sprouting below the lesion after SCI, sub-acute CRP treatment; assay type: in vivo, rat
Source text: as §2
In particular, 5HT immunoreactivity in lumbosacral level after SCI. […] (G, H) Representative images with double staining of […]

perineuronal nets (PNN) [5] = assay: Perineuronal nets (WFA staining) in lumbosacral spinal cord after T8 SCI; assay type: in vivo, rat; conditions: 3 months post SCI; vs scrambled peptide
Source text: (A, B) Representative L4 spinal cord transverse images show CRP treatment reduces overall PNN in grey matter of lumbar spinal cord neurons at 3 months post SCI. Notice areas with clear decreased WFA staining of the PNN (asterisk). […] (E, F) Representative higher power immunostaining images of the ventral horn of
transverse L4 sections show the strong PNN intensity (arrow) surrounding the NeuN+ cells in scr treated SCI rats (E), while CRP treatment reduces them (F). *, P<0.05 when compared to the scr treatment. N=8 per group.

spinal cord injury (SCI) [6] = assay: Locomotion (BBB 21-point score) and gait after chronic SCI, treatment from two months after SCI; assay type: in vivo, rat
Source text: Basso, Beattie, and Bresnahan (BBB) 21-point scoring test is used as the locomotion assessment after SCI. SCI causes significant deficits on locomotion function as indicated by the significant drop of BBB scores from 21 of the normal rats. […] However, ISP treatment slightly decreases BBB scores from 11.667±0.211 (two months after SCI) to 11.00±0.577 (two months plus 42 days after SCI) (A).
as §1
(§3) The above were followed up with studies to evaluate the treatment effects of CRP in chronic SCI. The chronic SCI is not only way more challenge to be repaired but also is the clinical status of the majority of patients with SCI.

spinal cord injury (SCI) [7] = assay: Bladder function after chronic SCI, CRP from two months after SCI; assay type: in vivo, rat
Source text: as §1, §3
The box area indicates the bursting activity.

5HT fibers = assay: 5HT fiber sprouting in lumbar cord after chronic SCI; assay type: in vivo, rat; conditions: vs scrambled peptide
perineuronal nets (PNN) [8] = assay: PNN (WFA) in lumbar cord after chronic SCI; assay type: in vivo, rat
sciatic nerve injury = assay: Gait after complete sciatic nerve transection with peripheral nerve allograft, CRP treatment; assay type: in vivo; conditions: 3 months after complete sciatic nerve transection, subcutaneous once per day, vs vehicle
Source text: The representative 2D trajectory and improved kinematics parameters indicated CRP treated animals improved the stepping more toward to what the uninjured limb did, while compared to the vehicle treated animals. The CRP was delivered through subcutaneous injection near the injured site (once per day) staring immediately after surgery for 3 months.

Neu7-produced CSPGs = assay: Reduction of CSPG produced by Neu7 cells; assay type: cell-based
[9] = 3 months post-SCI, T8 SCI, vs scrambled peptide
[10] = 5 months post SCI vs two months post SCI (beginning of treatment)

Substance: YGRKKRRQRRR-PKPRVTWNKKGKKVNSQRF-KFERQKILDQRFFE (NYGRKKRRQRRRPKPRVTWNKKGKKVNSQRFKFERQKILDQRFFEC) [CRP]
- CSPG ([1]; three months after SCI, sub-acute treatment): significantly decreased CSPG
- CSPG in lesion epicenter and adjacent tissue ([1]; two weeks after contusive SCI, treatment starting one day after SCI, vs vehicle): significantly decreases SCI-induced increases in CSPG
- gait pattern parameters (kinematics, hindlimb trajectories) (spinal cord injury (SCI) [2]; 3 months post-SCI, vs scrambled peptide): significantly improved several parameters of gait pattern
- motor function recovery (spinal cord injury (SCI) [2]; out to 91 days post-contusion, sub-acute treatment): significantly promotes motor function recovery
- EUS bursting activity (EUS EMG during the void) (spinal cord injury (SCI) [3]; [9]): improves EUS bursting activity
- bladder capacity (CMG) (spinal cord injury (SCI) [3]; [9]): smaller bladder capacity
- hyperactive bladder (CMG) (spinal cord injury (SCI) [3]; [9]): reduces hyperactive bladder
- voiding pressure (CMG) (spinal cord injury (SCI) [3]; [9]): lower voiding pressure
- number and amplitude of non-voiding contraction (overactive bladder) (spinal cord injury (SCI) [3]; after SCI, sub-acute treatment): reduction of both the number and amplitude of non-voiding contraction
- residual volume and volume per void (spinal cord injury (SCI) [3]; after SCI, sub-acute treatment): reducing residual volume and volume per void toward normal condition
- voiding patterns (spinal cord injury (SCI) [3]; after SCI, sub-acute treatment): improves voiding patterns
- external urethral sphincter (EUS) activity: number of burst, EMG amplitude, coordination with detrusor contraction (spinal cord injury (SCI) [3]; during the void period, sub-acute treatment): improving external urethral sphincter (EUS) activity
- nerve sprouting below lesion from neuron in brain stem and red nucleic ([4]; after SCI, sub-acute treatment): enhances nerve sprouting below lesion
- sprouting of serotonin (5-HT) fibers below lesion ([4]; after SCI, sub-acute treatment): enhances sprouting of serotonin (5-HT) fibers
- immunoreactivity of 5HT fibers at L4 and L6/S1 levels ([4]; severe contusive SCI, vs scrambled peptide): significantly increases immunoreactivity of 5HT fibers
- PNN at L4 and L6/S1 levels (perineuronal nets (PNN) [5]): significant reduction of PNN
- BBB locomotion scale (spinal cord injury (SCI) [6]; [10]): significant increases in BBB locomotion scale
- stepping kinematic of both hindlimbs (2D trajectory patterns) (spinal cord injury (SCI) [6]; [10]): improved stepping kinematic of both hindlimbs
- average increases in BBB scores (spinal cord injury (SCI) [6]; by two months plus 42 days after SCI, treatment starting two months after SCI): 3.0±0.365
- BBB score (spinal cord injury (SCI) [6]; two months after SCI (start of treatment)): 11.75±0.164
- BBB score (spinal cord injury (SCI) [6]; two months plus 42 days after SCI, treatment starting two months after contusive SCI): 14.33±0.211
- hyperactive bladder (CMG) (spinal cord injury (SCI) [7]; 3 months of treatment starting at 2 months post SCI): reduce hyperactive bladder
- EUS bursting activity during the void period (spinal cord injury (SCI) [7]; chronic SCI, vs scrambled peptide): improve EUS bursting activity
- voiding patterns (spinal cord injury (SCI) [7]; subcutaneous injection beginning two-month after SCI): significantly improves
- 5HT+ nerve fibers sprouting in lumbosacral level (5HT fibers): enhance 5HT+ nerve fibers sprouting
- PNN (WFA+) in lumbar cord (perineuronal nets (PNN) [8]): robustly decreased PNN
- stepping performance of hindlimbs (sciatic nerve injury): improved the stepping performance of hindlimbs
- dosage dependence of CSPG reduction (Neu7-produced CSPGs; Neu7 cells): dosage response
- CSPG produced by Neu7 cells (Neu7-produced CSPGs; compared with ChABC): significantly reduces CSPG produced by Neu7 cells
